This passage reports TGI and GI50 results from PubChem BioAssay (NCI).

“And” between values parts separate entries of the source, which are not always exact repeats. Equal entries are not always repeated.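 Five compound concentrations were applied to cells in 96-well plates for 48 hours; endpoints were derived by simple linear interpolation of the resulting dose-response curve. GI50: concentration for 50% inhibition of growth. TGI: total growth inhibition.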

Among the test systems are 786-0 renal; SK-MEL-2 melanoma; A549 NSCLC; ACHN renal; UACC-257 melanoma; SN12C renal; SNB-19 CNS; MDA-N; HCC-2998 colon; SF-268 CNS; SK-MEL-28 melanoma.
Holding throughout (test): NCI anticancer screen, dose series, 48 h

For `COC(=O)[C@@]12CSC[C@]1(C(=O)OC)N[C@@H](c1ccccc1O)C2`, the TGI in the test with 786-0 renal, in the test with SK-MEL-2 melanoma, with A549 NSCLC, with ACHN renal, with UACC-257 melanoma and in the test with SN12C renal was above 100 µM each time. The TGI in the test on SNB-19 CNS, in the test on MDA-N, in the test with HCC-2998 colon, in the test with SF-268 CNS and in the test with SK-MEL-28 melanoma was above 100 µM each time.
Turning to `COc1ccc2[nH]c3ccc4cc[n+](CCN5CCC(C6CCN(CC[n+]7ccc8ccc9[nH]c%10ccc(OC)cc%10c9c8c7)CC6)CC5)cc4c3c2c1`, the TGI is 50 µM with 786-0 renal; above 90.7 µM with SK-MEL-2 melanoma; 50 µM and > 62.2 µM in the test with A549 NSCLC; 50 µM in the test on ACHN renal; 50 µM and > 100 µM in the test on UACC-257 melanoma; 50 µM with SN12C renal. For the same compound, the TGI is above 70.9 µM in the test with SNB-19 CNS; 50 µM in the test on MDA-N; 14.2 µM and > 100 µM in the test with HCC-2998 colon; 50 µM and > 56.9 µM in the test with SF-268 CNS; above 50 µM in the test on SK-MEL-28 melanoma. The GI50 was 0.747 µM in the test with A549 NSCLC; 12.1 µM in the test on UACC-257 melanoma; 8.76 µM in the test with SN12C renal; above 50 µM in the test with SNB-19 CNS; above 50 µM in the test with SK-MEL-28 melanoma.
For `COc1c(C(=O)/C(=N/Nc2ccc(C(=O)O)cc2)C(C)=O)c(O)cc2occc12`, the TGI in the test on 786-0 renal, in the test on SK-MEL-2 melanoma, in the test with A549 NSCLC, in the test on ACHN renal, in the test on UACC-257 melanoma and with SN12C renal was above 100 µM in each case. Also, the TGI with SNB-19 CNS, in the test with MDA-N, in the test on HCC-2998 colon, in the test with SF-268 CNS and with SK-MEL-28 melanoma was above 100 µM in each case.
For `CCOC(CBr)OC1C(=O)OCC1(C)C` (centres undefined), the TGI with 786-0 renal, in the test with SK-MEL-2 melanoma, with A549 NSCLC, with ACHN renal, with UACC-257 melanoma and in the test on SN12C renal was above 100 µM throughout. For the same compound, the TGI in the test with SNB-19 CNS, in the test on MDA-N, in the test with HCC-2998 colon, in the test on SF-268 CNS and with SK-MEL-28 melanoma was above 100 µM each time.
For `COC(=O)C1(Cc2ccc3c(c2)CCC3)Cc2ccc3c(c2C1=O)CCC3` (centres undefined), the TGI was above 91.3 µM with 786-0 renal; 15.4 µM with SK-MEL-2 melanoma; above 100 µM in the test with A549 NSCLC; above 100 µM in the test on ACHN renal; above 100 µM in the test on UACC-257 melanoma; above 100 µM in the test with SN12C renal. Moreover, the TGI was above 100 µM with SNB-19 CNS; 5.78 µM in the test on MDA-N; 44.5 µM in the test on HCC-2998 colon; above 100 µM in the test on SF-268 CNS; above 100 µM with SK-MEL-28 melanoma.
For the compound `CCOC(=O)NC(Nc1ccc(F)cc1F)(C(F)(F)F)C(F)(F)F`, the TGI in the test with 786-0 renal, with SK-MEL-2 melanoma, with A549 NSCLC, in the test with ACHN renal, with UACC-257 melanoma and with SN12C renal was above 100 µM each time. The TGI in the test with SNB-19 CNS, with MDA-N, in the test on HCC-2998 colon, in the test with SF-268 CNS and in the test on SK-MEL-28 melanoma was above 100 µM in each case.
Regarding `O=C(CCCc1cccc2[nH]c3c(c12)CN(Cc1ccccc1)CC3)c1ccc(F)cc1`, the TGI in the test on 786-0 renal, in the test with SK-MEL-2 melanoma, in the test on A549 NSCLC, in the test with ACHN renal, in the test with UACC-257 melanoma and in the test with SN12C renal was above 100 µM each time. Also, the TGI in the test with SNB-19 CNS was above 100 µM; in the test on MDA-N, above 100 µM; in the test on HCC-2998 colon, 38.5 µM; in the test with SF-268 CNS it was above 100 µM; with SK-MEL-28 melanoma it was above 100 µM.
With `CCO/N=C\c1ccc2oc(-c3ccccc3)cc(=O)c2c1`, the TGI in the test on 786-0 renal is 17.7 µM; in the test with SK-MEL-2 melanoma, 4.54 µM; with A549 NSCLC it was 17 µM; in the test with ACHN renal it was 37.2 µM; in the test with UACC-257 melanoma, 66 µM; in the test with SN12C renal it was 11.5 µM. Also, the TGI is 19.8 µM in the test on SNB-19 CNS; 0.105 µM in the test on MDA-N; 6.08 µM in the test with HCC-2998 colon; 24.2 µM with SF-268 CNS; above 100 µM in the test with SK-MEL-28 melanoma.
On to `C/C(Cc1ccc2c(c1)OCO2)=N\N=c1\sc2ccccc2n1C`, for which the TGI with 786-0 renal, in the test with SK-MEL-2 melanoma, with A549 NSCLC, with ACHN renal, in the test on UACC-257 melanoma and with SN12C renal was above 100 µM each time. For the same compound, the TGI in the test on SNB-19 CNS, with MDA-N, in the test on HCC-2998 colon, with SF-268 CNS and in the test with SK-MEL-28 melanoma was above 100 µM throughout.
Take `Cc1ccc(C(=O)Nc2ccc(S(=O)(=O)O)c3cc(S(=O)(=O)O)cc(S(=O)(=O)O)c23)cc1NC(=O)c1cccc(NC(=O)Nc2cccc(C(=O)Nc3cc(C(=O)Nc4ccc(S(=O)(=O)O)c5cc(S(=O)(=O)O)cc(S(=O)(=O)O)c45)ccc3C)c2)c1`: the TGI in the test with 786-0 renal, in the test on SK-MEL-2 melanoma, with A549 NSCLC, in the test on ACHN renal, with UACC-257 melanoma and with SN12C renal was above 100 µM in each case. In addition, the TGI in the test on SNB-19 CNS, with MDA-N, in the test on HCC-2998 colon, in the test with SF-268 CNS and in the test on SK-MEL-28 melanoma was above 100 µM in each case.
For the compound `O=C(N/N=C\c1ccc(Cl)cc1)Nc1ccc2ccccc2c1`, the TGI in the test on 786-0 renal is 38.4 µM; in the test on SK-MEL-2 melanoma, above 100 µM; in the test with A549 NSCLC it was above 100 µM; in the test on ACHN renal, above 100 µM; in the test on UACC-257 melanoma it was above 100 µM; with SN12C renal, above 100 µM. In addition, the TGI is above 100 µM in the test with SNB-19 CNS; above 100 µM in the test with MDA-N; above 100 µM with HCC-2998 colon; 71.3 µM in the test on SF-268 CNS; above 100 µM in the test with SK-MEL-28 melanoma.
As to `COc1ccc(SCc2cc(OC)ccc2OC)cc1`, the TGI in the test with 786-0 renal was above 100 µM; in the test with SK-MEL-2 melanoma it was above 88.8 µM; in the test on A549 NSCLC, above 100 µM; in the test on ACHN renal, above 100 µM; in the test with UACC-257 melanoma it was above 100 µM; in the test with SN12C renal it was above 100 µM. Besides, the TGI is above 100 µM with SNB-19 CNS; 32.7 µM with MDA-N; 37 µM with HCC-2998 colon; above 100 µM with SF-268 CNS; above 100 µM in the test on SK-MEL-28 melanoma.
As for `O=C(O)c1ccc2c(O)c(O)ccc2c1`, the TGI in the test on 786-0 renal is 43.9 µM; with SK-MEL-2 melanoma, 67.3 µM; in the test with A549 NSCLC it was above 93.8 µM; in the test on ACHN renal, 29.3 µM; in the test with UACC-257 melanoma, 50.5 µM; with SN12C renal it was 27.7 µM. Moreover, the TGI is 36.1 µM in the test on SNB-19 CNS; 38.5 µM in the test on MDA-N; above 60.9 µM in the test on HCC-2998 colon; 22.3 µM in the test with SF-268 CNS; above 100 µM in the test on SK-MEL-28 melanoma.
For `O=C(Cn1c2ccc(Br)cc2c2nc3ccccc3nc21)NCc1ccccc1`, the TGI in the test with 786-0 renal is 39 µM; with SK-MEL-2 melanoma, 95.1 µM; with A549 NSCLC it was above 100 µM; with ACHN renal it was 41.7 µM; with UACC-257 melanoma, above 100 µM; in the test with SN12C renal it was above 100 µM. Moreover, the TGI in the test on SNB-19 CNS is 72.4 µM; with MDA-N, above 100 µM; with HCC-2998 colon, above 100 µM; in the test with SF-268 CNS, above 100 µM; with SK-MEL-28 melanoma, above 100 µM.
